In patent US11440880B2, “Thalidomide analogs and methods of use” (The USA, as represented by the Secretary, Department of …, priority 2015, dated 2022):

Legend:
[1] = test system: nitrite levels in the culture media; assay: Nitrite level (Griess Reagent System) in LPS-challenged RAW 264.7 cells; type: cell-based, mouse; set-up: key: NS=not significant; a “+” sign=anti-inflammatory or increased cell numbers; a “−” sign=cell toxicity or pro-inflammatory; settings: LPS 30 or 60 ng/mL, 24 h
Procedure: (§1) Nitrite levels in the culture media were measured by use of the Griess Reagent System (Promega, Madison, Wis.), following the manufacturer's protocol. The O.D. of unknown samples was read at 520 nm λ, compared to a sodium nitrite standard curve (1.5 μM to 100 μM) and nitrite measured media concentrations expressed as μM units. As the lowest nitrite concentration on the Griess Reagent System standard curve was 1.5 μM, this was chosen as the effective cutoff for defining measurable nitrite concentrations. TNF-α protein levels were measured by use of an ELISA specific for mouse TNF-α protein (BioLegend, San Diego, Calif.) and are expressed as a % change from their appropriate control or as pg/ml.
(§2) RAW 264.7 cells obtained from ATCC (Manassas, Va., USA) were grown in DMEM media supplemented with 10% FCS, penicillin 100 μg/ml and streptomycin 100 μg/ml, and maintained at 37° C. and 5% CO2. Cells were seeded in 24 well plates and, 24 hours later, were utilized in studies. One hour prior to the initiation of any study, the seeding media was replaced with fresh media (1 mL), and the cells were allowed to equilibrate at 37° C. and 5% CO2.
(§3) RAW 264.7 cells were challenged with LPS (Sigma, St Louis, Mo.: serotype 055:B5) from at a final concentration of 30 or 60 ng/mL. This concentration of LPS in RAW 264.7 cells induces a sub-maximal rise in both TNF-alpha and nitrite levels without a loss in cellular viability. This sub-maximal rise is useful for assessing whether the addition of an experimental drug can either lower or further raise levels of TNF-α and nitrite. Twenty four hours following the addition of LPS, conditioned media was harvested and analyzed for quantification of secreted TNF-α protein and nitrite levels. Fresh media was replaced into the wells and cell viability was then assessed.
(§4) Thalidomide and analogs were prepared in tissue culture grade DMSO (Sigma). RAW 264.7 cells were pretreated with thalidomide, analogues or vehicle one hour prior to a challenge with LPS. The effects of various concentrations of thalidomide analogues were assessed. All compounds were synthesized to a chemical purity of >99.5%, as assessed by chemical characterization by a combination of 1H NMR, 13C NMR and GC/MS analyses (Bruker AC-300 spectrometer, together with elemental analyses (Atlantic Microlab, Inc., Norcross, Ga.).

RAW 264.7 cells = assay: Cell viability (CellTiter 96 AQueous One) of LPS-challenged RAW 264.7 cells; type: cell-based, mouse; set-up: key: NS=not significant; a “+” sign=anti-inflammatory or increased cell numbers; a “−” sign=cell toxicity or pro-inflammatory
Procedure: The CellTiter 96® AQueous One Solution Cell Proliferation Assay (Promega, Madison, Wis.) is routinely used as an assay of cell proliferation, and was used according to the manufacturer's recommendations. Changes in cellular health status are determined by use of indirect measures related to the formation of a colored tetrazolium dye product that can be measured spectrophotometrically at 490 nm λ. […] Optical densities (expressed as O.D.s) were measured after various incubations.
as §2, §3, §4

TNF-α protein = TNF-α protein level (ELISA) in LPS-challenged RAW 264.7 cells; type: cell-based, mouse; set-up: key: NS=not significant; a “+” sign=anti-inflammatory or increased cell numbers; a “−” sign=cell toxicity or pro-inflammatory; settings: LPS 30 or 60 ng/mL, 24 h
Procedure: as §1, §2, §3, §4

[2] = test system: fli1:EGFP zebrafish embryos (intersegmental vessel growth); assay: fli1:EGFP zebrafish embryo angiogenesis assay; type: in vivo; set-up: fli1:EGFP angiogenesis n (survived/tested): concentration or dose not given beside the values; settings: for minimal effective concentration: Danio rerio, lowest concentration producing an effect, compounds not producing an effect shown at the highest evaluated concentration; for fli1:EGFP angiogenesis n (survived/tested): embryos alive after 24 hours of exposure
Description: Zebrafish embryology: The use of zebrafish embryo (Danio rerio) bioassays as a preclinical model in the classification of novel compounds has increased in recent years due to several factors including; low cost, ease of maintenance, speed of embryonic development, transparency of the embryos and genetic conservation between zebrafish and humans (Howe et al., Nature 2013; 496:498; Therapontos et al., PNAS 2009, 106:8573; Mahony et al., PNAS 2013, 110:12703; Beedie et al., Oncotarget 2016, 7(22):33237; Beedie et al., Mol. Cancer Ther. 2015, 14(10):2228). Two established zebrafish reporter lines were used—the fli1:EGFP line, where the fli1 promoter drives expression of enhanced green fluorescent protein within the developing vasculature (Lawson et al., 2002), and the Tg(mpo::EGFP) line (also known as mpo:GFP), which expresses green fluorescent protein via the neutrophil specific myeloperoxidase promoter (Renshaw et al., Blood 2006, 108:3976). The use of these zebrafish transgenic reporter lines allows for the identification of potential anti-angiogenic and anti-inflammatory compounds respectively, and both have been used previously to successfully classify the action of thalidomide analogs (Therapontos et al., 2009; Mahony et al., 2013; Beedie et al., Oncotarget 2016, 7(22):33237; Beedie et al., Mol. Cancer Ther. 2015, 14(10):2228). Zebrafish embryos were treated with analogs as previously described (Mahony et al., 2013). Briefly, fli1:EGFP embryos were collected and embryos were allowed to develop for 24 hours. Embryos were dechorionated manually and exposed to test compounds or vehicle control for a further 24 hours, imaged and analyzed for intersegmental vessel (ISV) growth. At 24 hours post fertilisation (hpf) the ISVs were ideal to study to visualize and analyze the actions of compounds on angiogenesis. At this time point ISVs were rapidly forming beneath the developing head, over the body and had yet to form in the tail (Lawson and Weinstein, Developmental Biology 2002, 248:307; Therapontos and Vargesson, Developmental Dynamics 2010, 239:2761). Additionally, these sprouts would go on to form the bilateral dorsal longitudinal anastomotic vessels. By treating before this fusion and formation occurs, the effect of each compound on the individual vessels as well as overall patterning structural integrity (Isogai et al., Development 2003, 130:5281) could be determined. Tg(mpo::EGFP) were tail fin clipped as previously detailed (Renshaw et al., 2006; Mahony et al., 2013; Beedie et al., Oncotarget 2016, 7(22):33237; Beedie et al., Mol. Cancer Ther. 2015, 14(10):2228) and incubated with test compounds or vehicle control at 72 hours post fertilization. Fish were imaged at 24 hours and the number of migratory neutrophils present at the wound site were counted. Compounds inducing an at least 50% reduction of neutrophils to the wound site were considered to have anti-inflammatory properties in this system. All larvae were assessed for viability and morphological integrity.
To determine if the thalidomide analogs had any effect on angiogenesis, fli1:EGFP embryos (Lawson and Weinstein, Developmental Biology 2002, 248:307-318) were exposed to either vehicle or a compound of interest, over a range of concentrations and over a range of time points starting at 24 hpf. Images were obtained at three time points over 24 hours after exposure to the compounds. The best concentration and time point were selected. CPS49, a compound that is chemically and structurally similar to thalidomide breakdown products, and is tetrafluorinated (which adds stability and bioactivity to the compound) and that causes severe limb defects in chicken embryos, was used as a positive control. The embryos were imaged at 48 hpf (FIGS. 3A3L) and analyzed for both vessel formation and the extent of growth of the vasculature. […]

Structure (SMILES) | Nitrite ([1]; 1 μM) | Nitrite ([1]; 10 μM) | Nitrite ([1]; 30 μM) | Viability (RAW 264.7 cells; 1 μM) | Viability (RAW 264.7 cells; 10 μM) | Viability (RAW 264.7 cells; 30 μM) | TNF-α (TNF-α protein; 1 μM) | TNF-α (TNF-α protein; 10 μM) | TNF-α (TNF-α protein; 30 μM) | minimal effective concentration [2] | fli1:EGFP angiogenesis n (survived/tested) [2] | anti-angiogenic effect (loss of ISVs or inhibition of ISV outgrowth) ([2]; in words) | Nitrite ([1]; 60 μM) | Viability (RAW 264.7 cells; 60 μM) | TNF-α (TNF-α protein; 60 μM)
C[C@@H]1[C@@H](N2Cc3c(N)cccc3C2=O)C[C@H]2C[C@@H]1C2(C)C [Compound 93] | NS | NS | + | NS | NS | NS | NS | NS | NS | 10 µg/mL | 8/10 |  |  |  | 
CC(N1Cc2c(cccc2[N+](=O)[O-])C1=S)C12CC3CC(CC(C3)C1)C2 (stereo not drawn) [Compound 89] | NS | + | + | NS | NS | − | NS | NS | NS | 10 µg/mL | 7/11 |  |  |  | 
O=C1c2c(F)c(F)c(F)c(F)c2C(=O)N1c1ccc(F)cc1F [CPS49, reference compound] |  |  |  |  |  |  |  |  |  |  |  | decrease in blood vessel length |  |  | 
C[C@H]1[C@H](N2Cc3c(N)cccc3C2=O)C[C@@H]2C[C@H]1C2(C)C [Compound 91] | + | + | + | NS | + | + | NS | + | + | 10 µg/mL | 5/18 |  |  |  | 
CC1(C)[C@@H]2CC[C@H](CN3Cc4c(cccc4[N+](=O)[O-])C3=O)[C@H]1C2 [Compound 103] | + | + | NS | NS | NS | SIG | NS | + | SIG |  |  |  |  |  | 
CC1(C)[C@@H]2CC[C@]1(C)[C@@H](N1Cc3c(N)cccc3C1=O)C2 [Compound 97] | NS | NS | + | NS | NS | NS | NS | + | NS |  |  |  |  |  | 
Nc1cccc2c1CN([C@@H]1C[C@H]3CC[C@@H]1C3)C2=O [Compound 100] | NS | NS | NS | NS | NS | NS | NS | NS | NS |  |  |  |  |  | 
CC1(C)[C@@H]2CC[C@]1(C)[C@@H](N1C(=O)C3CC=CCC3C1=O)C2 (stereo partly drawn) [Compound 115] |  | + | + |  | − | − |  | + | + |  |  |  | + | − | +
CC(N1Cc2ccccc2C1=O)C12CC3CC(CC(C3)C1)C2 (stereo not drawn) [Compound 71] | NS | NS | + | NS | NS | − | NS | NS | + |  |  |  |  |  | 
O=C1c2cccc([N+](=O)[O-])c2CN1C12CC3CC(CC(O)(C3)C1)C2 [Compound 87] | NS | NS | NS | NS | NS | NS | NS | NS | NS |  |  |  |  |  | 
CC1(C)[C@@H]2CC[C@]1(C)[C@H](N1Cc3c(cccc3[N+](=O)[O-])C1=O)C2 [Compound 94] | + | + | + | NS |  | − | NS | + | + |  |  |  |  |  | 
S=C1c2ccccc2CN1C12CC3CC(CC1C3)C2 [Compound 75] | NS | NS | NS | NS | NS | NS | NS | + | + |  |  |  |  |  | 
CC1(C)[C@@H]2CC[C@]1(C)[C@@H](N1Cc3c(cccc3[N+](=O)[O-])C1=O)C2 [Compound 96] | + | + | + | − | − | NS | NS | + | + |  |  |  |  |  | 
